Consider eleven molecules from patent US6121239A, “Peptide substrates for the identification of factor Xa” (Serbio, priority 1990, dated 2000).

Non-standard residues stand in square brackets, D forms with d. Residues, ends and D or L forms follow the SMILES beside them. *: point of attachment. pNA = O=[N+]([O-])c1ccc(N*)cc1; X1 = COC(=O)CC(=O)*; Ms = CS(=O)(=O)*

The target of this experiment is Factor Xa (Homo sapiens, UniProt P00742). The experiment can be described thus: Activity towards Factor Xa: hydrolysis rate by variation in optical density with time (ΔOD/min). The experiment is classed as biochemical. To be noted: hydrolysis rate (ΔOD/min) at equimolar doses; activity of reference product CP 1 specified as 100%. The protocol: The activity of the peptides according to the invention towards Factor Xa was determined by one of the conventional methods, such as the one described in EP-A-0 280 160 (see page 14), the hydrolysis rate being assessed by the variation in optical density with time (ΔOD/min). The results obtained at equimolar doses have been collated in Table III below, where the activity of the reference product CP 1 is specified as being equal to 100% for the sake of convenience.
Chain of Factor Xa (P00742 235-488 limits assumed): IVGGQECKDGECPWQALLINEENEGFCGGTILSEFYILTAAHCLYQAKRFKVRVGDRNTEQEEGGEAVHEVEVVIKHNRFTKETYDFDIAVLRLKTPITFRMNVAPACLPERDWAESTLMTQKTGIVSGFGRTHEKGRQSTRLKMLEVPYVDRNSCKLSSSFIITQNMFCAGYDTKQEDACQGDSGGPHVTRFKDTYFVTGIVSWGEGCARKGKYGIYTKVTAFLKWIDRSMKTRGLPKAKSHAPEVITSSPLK
Chain of Factor Xa (P00742 41-179 partner limits assumed): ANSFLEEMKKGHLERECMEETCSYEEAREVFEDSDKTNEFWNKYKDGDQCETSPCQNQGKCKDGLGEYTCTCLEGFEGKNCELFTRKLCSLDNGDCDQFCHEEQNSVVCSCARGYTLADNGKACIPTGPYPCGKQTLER

Turning to `CC(C)C[C@@H](NS(C)(=O)=O)C(=O)NCC(=O)N[C@@H](CCCNC(=N)N)C(=O)Nc1ccc([N+](=O)[O-])cc1` [CP 1, reference compound] (Ms-[dL]-Gly-Arg-pNA), the “Activity (activity towards Factor Xa)” value amounted to 100%.

For `COC(=O)CC(=O)N[C@H](CC(C)C)C(=O)NCC(=O)N[C@@H](CCCNC(=N)N)C(=O)Nc1ccc([N+](=O)[O-])cc1` [Ex. 1, MM-D-Leu-Gly-L-Arg-pNA.AcOH], the “Activity (activity towards Factor Xa)” value is 115%.

Regarding `CCOC(=O)CC(=O)N[C@H](CC(C)C)C(=O)NCC(=O)N[C@@H](CCCNC(=N)N)C(=O)Nc1ccc([N+](=O)[O-])cc1` [Ex. 2, EM-D-Leu-Gly-L-Arg-pNA], the “Activity (activity towards Factor Xa)” value is given as 132%. With `CCCC[C@@H](NC(=O)CC(=O)OC)C(=O)NCC(=O)N[C@@H](CCCNC(=N)N)C(=O)Nc1ccc([N+](=O)[O-])cc1` [Ex. 14, MM-D-Nle-Gly-L-Arg-pNA], the “Activity (activity towards Factor Xa)” value was 140%. `CC[C@@H](C)[C@@H](NC(=O)CC(=O)OC)C(=O)N[C@@H](CCC(=O)OC)C(=O)NCC(=O)N[C@@H](CCCNC(=N)N)C(=O)Nc1ccc([N+](=O)[O-])cc1` [Ex. 33, MM-D-Ile-L-Glu(OMe)-Gly-L-Arg-pNA] (X1-[dI]E(OMe)GR-pNA): the “Activity (activity towards Factor Xa)” value amounted to 105%. As for `COCCOC(=O)N[C@H](CC(C)C)C(=O)NCC(=O)N[C@@H](CCCNC(=N)N)C(=O)Nc1ccc([N+](=O)[O-])cc1` [Ex. 61, Me-OCH2 CH2 O-CO-D-Leu-Gly-L-Arg-pNA.AcOH], the “Activity (activity towards Factor Xa)” value is recorded as 145%.

`COCCOCCOC(=O)N[C@H](CC(C)C)C(=O)NCC(=O)N[C@@H](CCCNC(=N)N)C(=O)Nc1ccc([N+](=O)[O-])cc1` [Ex. 62, Me-O(CH2 CH2 O)2 -CO-D-Leu-Gly-L-Arg-pNA.AcOH]: the “Activity (activity towards Factor Xa)” value is on record as 105%. Regarding `COCCOCCOCCOC(=O)N[C@H](CC(C)C)C(=O)NCC(=O)N[C@@H](CCCNC(=N)N)C(=O)Nc1ccc([N+](=O)[O-])cc1` [Ex. 63, MeO(CH2 CH2 O)3 -CO-D-Leu-Gly-L-Arg-pNA], the “Activity (activity towards Factor Xa)” value is 110%. For `COCCOCCOCCOCCOCCOCCOCCOC(=O)N[C@H](CC(C)C)C(=O)NCC(=O)N[C@@H](CCCNC(=N)N)C(=O)Nc1ccc([N+](=O)[O-])cc1` [Ex. 64, Me-O(CH2 CH2 O)7 -CO-D-Leu-Gly-L-Arg-pNA.AcOH], the “Activity (activity towards Factor Xa)” value was 103%.

In the case of `CCCC[C@@H](NC(=O)OCCOCCOCCOC)C(=O)NCC(=O)N[C@@H](CCCNC(=N)N)C(=O)Nc1ccc([N+](=O)[O-])cc1` [Ex. 73], the “Activity (activity towards Factor Xa)” value stood at 121%. For the molecule `CCCCOCCOCCOCCOCCOCCOCCOCCOC(=O)N[C@H](CCCC)C(=O)NCC(=O)N[C@@H](CCCNC(=N)N)C(=O)Nc1ccc([N+](=O)[O-])cc1` [Ex. 101], the “Activity (activity towards Factor Xa)” value was 124%.
